According to PubChem BioAssay (NCI):
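Dose response: 5 concentrations. Exposure: 48 h. Format: 96-well plates. Endpoint: linear interpolation; highest concentration if not reached. GI50 marks 50% less growth. TGI denotes the concentration required for complete inhibition of growth.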

Assays:
Test in all cases: growth of human tumour cells (NCI), 48 h
NCI-H522 lung = tested on: NCI-H522 lung
UACC-257 melanoma = tested on: UACC-257 melanoma
NCI/ADR-RES ovarian = tested on: NCI/ADR-RES ovarian
OVCAR-5 ovarian = tested on: OVCAR-5 ovarian
SF-295 CNS = tested on: SF-295 CNS
OVCAR-4 ovarian = tested on: OVCAR-4 ovarian
MCF7 breast = tested on: MCF7 breast
HS 578T breast = tested on: HS 578T breast
MALME-3M melanoma = tested on: MALME-3M melanoma
SNB-75 CNS = tested on: SNB-75 CNS
SF-539 CNS = tested on: SF-539 CNS
HCT-15 colon = tested on: HCT-15 colon
A498 renal = tested on: A498 renal
DU-145 prostate = tested on: DU-145 prostate
SK-OV-3 ovarian = tested on: SK-OV-3 ovarian
SK-MEL-5 melanoma = tested on: SK-MEL-5 melanoma
SK-MEL-28 melanoma = tested on: SK-MEL-28 melanoma
SNB-19 CNS = tested on: SNB-19 CNS
SK-MEL-2 melanoma = tested on: SK-MEL-2 melanoma
SN12C renal = tested on: SN12C renal
TK-10 renal = tested on: TK-10 renal
ACHN renal = tested on: ACHN renal
UACC-62 melanoma = tested on: UACC-62 melanoma
RXF 393 renal = tested on: RXF 393 renal
NCI-H23 lung = tested on: NCI-H23 lung
SW-620 colon = tested on: SW-620 colon
UO-31 renal = tested on: UO-31 renal
MDA-MB-231 breast = tested on: MDA-MB-231 breast
EKVX NSCLC = tested on: EKVX NSCLC
MDA-MB-435 = tested on: MDA-MB-435
HOP-92 NSCLC = tested on: HOP-92 NSCLC
U251 CNS = tested on: U251 CNS
OVCAR-3 ovarian = tested on: OVCAR-3 ovarian
COLO 205 colon = tested on: COLO 205 colon
MOLT-4 leukemia = tested on: MOLT-4 leukemia
HOP-62 NSCLC = tested on: HOP-62 NSCLC
OVCAR-8 ovarian = tested on: OVCAR-8 ovarian
BT-549 breast = tested on: BT-549 breast
SR leukemia = tested on: SR leukemia
NCI-H226 lung = tested on: NCI-H226 lung
HCT-116 colon = tested on: HCT-116 colon
PC-3 prostate = tested on: PC-3 prostate
HCC-2998 colon = tested on: HCC-2998 colon
SF-268 CNS = tested on: SF-268 CNS
CAKI-1 renal = tested on: CAKI-1 renal
CCRF-CEM leukemia = tested on: CCRF-CEM leukemia
A549 NSCLC = tested on: A549 NSCLC
786-0 renal = tested on: 786-0 renal
NCI-H460 lung = tested on: NCI-H460 lung
HT29 colon = tested on: HT29 colon
RPMI-8226 leukemia = tested on: RPMI-8226 leukemia
K-562 leukemia = tested on: K-562 leukemia
M14 melanoma = tested on: M14 melanoma
HL-60(TB) leukemia = tested on: HL-60(TB) leukemia
KM12 colon = tested on: KM12 colon
IGROV1 ovarian = tested on: IGROV1 ovarian

CCOC(=O)c1cc(C(=O)c2ccc(Cl)cc2)n2ccc(-c3cc[n+](CC(=O)c4ccc(OC)cc4)cc3)cc12
GI50 (NCI-H522 lung): 1.93 µM | TGI (NCI-H522 lung): 3.89 µM | GI50 (UACC-257 melanoma): 2.21 µM | TGI (UACC-257 melanoma): 4.53 µM | GI50 (NCI/ADR-RES ovarian): 3.16 µM | TGI (NCI/ADR-RES ovarian): 33 µM | GI50 (OVCAR-5 ovarian): 1.82 µM | TGI (OVCAR-5 ovarian): 3.69 µM | GI50 (SF-295 CNS): 1.7 µM | TGI (SF-295 CNS): 3.32 µM | GI50 (OVCAR-4 ovarian): 1.68 µM | TGI (OVCAR-4 ovarian): 3.4 µM | GI50 (MCF7 breast): 1.4 µM | TGI (MCF7 breast): 3.36 µM | GI50 (HS 578T breast): 1.81 µM | TGI (HS 578T breast): 4.38 µM | GI50 (MALME-3M melanoma): 2.01 µM | TGI (MALME-3M melanoma): 3.98 µM | GI50 (SNB-75 CNS): 1.47 µM | TGI (SNB-75 CNS): 3.09 µM | GI50 (SF-539 CNS): 1.68 µM | TGI (SF-539 CNS): 3.27 µM | GI50 (HCT-15 colon): 1.64 µM | TGI (HCT-15 colon): 3.6 µM | GI50 (A498 renal): 1.6 µM | TGI (A498 renal): 3.17 µM | GI50 (DU-145 prostate): 1.69 µM | TGI (DU-145 prostate): 3.2 µM | GI50 (SK-OV-3 ovarian): 2.01 µM | TGI (SK-OV-3 ovarian): 3.62 µM | GI50 (SK-MEL-5 melanoma): 1.77 µM | TGI (SK-MEL-5 melanoma): 3.42 µM | GI50 (SK-MEL-28 melanoma): 1.89 µM | TGI (SK-MEL-28 melanoma): 3.74 µM | GI50 (SNB-19 CNS): 1.83 µM | TGI (SNB-19 CNS): 3.73 µM | GI50 (SK-MEL-2 melanoma): 2.04 µM | TGI (SK-MEL-2 melanoma): 4.36 µM | GI50 (SN12C renal): 1.83 µM | TGI (SN12C renal): 3.59 µM | GI50 (TK-10 renal): 1.76 µM | TGI (TK-10 renal): 3.37 µM | GI50 (ACHN renal): 1.78 µM | TGI (ACHN renal): 3.31 µM | GI50 (UACC-62 melanoma): 1.82 µM | TGI (UACC-62 melanoma): 3.52 µM | GI50 (RXF 393 renal): 1.4 µM | TGI (RXF 393 renal): 3.03 µM | GI50 (NCI-H23 lung): 1.84 µM | TGI (NCI-H23 lung): 3.74 µM | GI50 (SW-620 colon): 1.38 µM | TGI (SW-620 colon): 3.27 µM | GI50 (UO-31 renal): 1.47 µM | TGI (UO-31 renal): 2.99 µM | GI50 (MDA-MB-231 breast): 1.59 µM | TGI (MDA-MB-231 breast): 3.25 µM | GI50 (EKVX NSCLC): 1.69 µM | TGI (EKVX NSCLC): 3.5 µM | GI50 (MDA-MB-435): 1.86 µM | TGI (MDA-MB-435): 3.67 µM | GI50 (HOP-92 NSCLC): 1.49 µM | TGI (HOP-92 NSCLC): 3.17 µM | GI50 (U251 CNS): 1.7 µM | TGI (U251 CNS): 3.54 µM | GI50 (OVCAR-3 ovarian): 1.88 µM | TGI (OVCAR-3 ovarian): 3.65 µM

Cc1ccc(O)c(N=Nc2c(O)cc(S(=O)(=O)O)c3ccccc23)c1
TGI (COLO 205 colon): > 100 µM | TGI (UACC-257 melanoma): > 100 µM | TGI (NCI/ADR-RES ovarian): 86.5 µM | TGI (OVCAR-5 ovarian): > 100 µM | TGI (SF-295 CNS): > 100 µM | TGI (OVCAR-4 ovarian): > 100 µM | TGI (MOLT-4 leukemia): 95.3 µM | TGI (MCF7 breast): > 100 µM | TGI (HS 578T breast): > 100 µM | TGI (HOP-62 NSCLC): > 100 µM | TGI (OVCAR-8 ovarian): > 100 µM | TGI (BT-549 breast): > 100 µM | TGI (SR leukemia): > 100 µM | TGI (NCI-H226 lung): > 100 µM | TGI (MALME-3M melanoma): > 100 µM | TGI (SF-539 CNS): > 100 µM | TGI (HCT-15 colon): > 100 µM | TGI (HCT-116 colon): 62.5 µM | TGI (SK-OV-3 ovarian): > 100 µM | TGI (PC-3 prostate): > 100 µM | TGI (SK-MEL-5 melanoma): 77.6 µM | TGI (HCC-2998 colon): > 100 µM | TGI (SK-MEL-28 melanoma): > 100 µM | TGI (SF-268 CNS): > 100 µM | TGI (CAKI-1 renal): > 100 µM | TGI (CCRF-CEM leukemia): > 100 µM | TGI (SK-MEL-2 melanoma): > 100 µM | TGI (A549 NSCLC): > 100 µM | TGI (786-0 renal): > 100 µM | TGI (NCI-H460 lung): > 100 µM | TGI (TK-10 renal): > 100 µM | TGI (HT29 colon): > 100 µM | TGI (ACHN renal): > 100 µM | TGI (RPMI-8226 leukemia): > 100 µM | TGI (UACC-62 melanoma): > 100 µM | TGI (K-562 leukemia): > 100 µM | TGI (M14 melanoma): > 100 µM | TGI (RXF 393 renal): > 100 µM | TGI (HL-60(TB) leukemia): 64 µM | TGI (SW-620 colon): > 100 µM | TGI (UO-31 renal): 79.6 µM | TGI (MDA-MB-231 breast): > 100 µM | TGI (EKVX NSCLC): > 100 µM | TGI (MDA-MB-435): > 100 µM | TGI (HOP-92 NSCLC): > 100 µM | TGI (KM12 colon): > 100 µM | TGI (U251 CNS): > 100 µM | TGI (IGROV1 ovarian): > 100 µM | TGI (OVCAR-3 ovarian): 76.2 µM
